# Experimental data: ChEMBL document CHEMBL4480396 (Eur J Med Chem, 2019)
# Active and inactive are the calls of the source. The rule behind the calls is not given here.
# Columns and labels:
# [1] = tested on: HepG2; experiment: Antiproliferative activity against human HepG2 cells measured after 48 hrs by MTT assay; assay type: functional, cell-based; details: HepG2, 48 h
# [2] = tested on: PC-3; experiment: Antiproliferative activity against human PC3 cells measured after 48 hrs by MTT assay; assay type: functional, cell-based; details: PC-3, 48 h
# [3] = tested on: MGC-803; experiment: Antiproliferative activity against human MGC803 cells measured after 48 hrs by MTT assay; assay type: functional, cell-based; details: MGC-803, 48 h
# [4] = tested on: MGC-803; experiment: Antiproliferative activity against human MGC803 cells measured after 48 hrs by CCK8 assay; assay type: functional, cell-based; details: MGC-803, 48 h
# [5] = tested on: MGC-803; experiment: Cell cycle arrest in human MGC803 cells assessed as decrease in accumulation at G1-phase at 30 to 90 nM measured after 48 hrs by propidium iodide staining based flow cytometry; assay type: functional
# [6] = tested on: MGC-803; experiment: Induction of apoptosis in human MGC803 cells assessed as necrotic cells at 90 nM after 48 hrs by Annexin V-FITC/propidium iodide staining based flow cytometry (reference value: 0.3%); assay type: functional
# [7] = biological target: Tubulin; experiment: Inhibition of tubulin (unknown origin) polymerization measured every minute by spectrophotometric method; assay type: protein-complex assay, Homo sapiens
# [8] = biological target: Cyclin-dependent kinase 1 (Homo sapiens) (UniProt P06493); experiment: Effect on CDK1 phosphorylation at Tyr15 residues in human MGC803 cells at 30 to 90 nM by Western blot analysis; assay type: cell-based
# [9] = tested on: MGC-803; experiment: Inhibition of colony formation in human MGC803 cells after 7 days by crystal violet staining based assay; assay type: functional, cell-based
# [10] = tested on: MGC-803; experiment: Induction of apoptosis in human MGC803 cells assessed as viable cells at 60 nM after 48 hrs by Annexin V-FITC/propidium iodide staining based flow cytometry (reference value: 94.9%); assay type: functional; details: MGC-803, 48 h, read-out: Activity
# [11] = tested on: MGC-803; experiment: Induction of apoptosis in human MGC803 cells assessed as down regulation of XIAP expression after 48 hrs by Western blot analysis; assay type: functional, cell-based
# [12] = tested on: MGC-803; experiment: Induction of apoptosis in human MGC803 cells assessed as early apoptotic cells at 90 nM after 48 hrs by Annexin V-FITC/propidium iodide staining based flow cytometry (reference value: 1.9%); assay type: functional
# [13] = tested on: MGC-803; experiment: Antiproliferative activity against human MGC803 cells assessed as cell viability at 120 nM measured after 7 days by crystal violet staining based assay relative to control; assay type: functional; details: MGC-803, 168 h, read-out: Activity
# [14] = tested on: MGC-803; experiment: Cell cycle arrest in human MGC803 cells assessed as decrease in accumulation at S-phase at 30 to 90 nM measured after 48 hrs by propidium iodide staining based flow cytometry; assay type: functional
# [15] = tested on: MGC-803; experiment: Induction of apoptosis in human MGC803 cells assessed as up regulation of Bax expression at 30 to 90 nM after 48 hrs by Western blot analysis; assay type: functional, cell-based
# [16] = tested on: MGC-803; experiment: Induction of apoptosis in human MGC803 cells assessed as late apoptotic cells at 90 nM after 48 hrs by Annexin V-FITC/propidium iodide staining based flow cytometry (reference value: 2.9%); assay type: functional
# [17] = tested on: MGC-803; experiment: Induction of apoptosis in human MGC803 cells after 48 hrs by Annexin V-FITC/propidium iodide staining based flow cytometry; assay type: functional, cell-based
# [18] = tested on: MGC-803; experiment: Induction of apoptosis in human MGC803 cells assessed as necrotic cells at 60 nM after 48 hrs by Annexin V-FITC/propidium iodide staining based flow cytometry (reference value: 0.3%); assay type: functional
# [19] = tested on: MGC-803; experiment: Induction of apoptosis in human MGC803 cells assessed as necrotic cells at 30 nM after 48 hrs by Annexin V-FITC/propidium iodide staining based flow cytometry (reference value: 0.3%); assay type: functional
# [20] = biological target: Tubulin beta (Homo sapiens) (UniProt P68371+Q9H4B7+Q13509+P04350+Q3ZCM7+P07437+Q13885+Q9BVA1+Q9BUF5+A6NNZ2); experiment: Inhibition of EBI binding to beta-tubulin colchicine binding site in human MGC803 cells at 0.4 to 4 uM preincubated for 2 hrs followed by EBI addition and measured after 2 hrs by Western blot analysis; assay type: cell-based
# [21] = tested on: MGC-803; experiment: Antiproliferative activity against human MGC803 cells assessed as cell viability at 30 nM measured after 7 days by crystal violet staining based assay relative to control; assay type: functional; details: MGC-803, 168 h, read-out: Activity
# [22] = tested on: MGC-803; experiment: Induction of apoptosis in human MGC803 cells assessed as late apoptotic cells at 60 nM after 48 hrs by Annexin V-FITC/propidium iodide staining based flow cytometry (reference value: 2.9%); assay type: functional
# [23] = tested on: MGC-803; experiment: Induction of apoptosis in human MGC803 cells assessed as viable cells at 30 nM after 48 hrs by Annexin V-FITC/propidium iodide staining based flow cytometry (reference value: 94.9%); assay type: functional; details: MGC-803, 48 h, read-out: Activity
# [24] = tested on: MGC-803; experiment: Induction of apoptosis in human MGC803 cells assessed as early apoptotic cells at 60 nM after 48 hrs by Annexin V-FITC/propidium iodide staining based flow cytometry (reference value: 1.9%); assay type: functional
# [25] = biological target: Tubulin (Homo sapiens) (UniProt P68371+Q9H4B7+P0DPH7+P68366+Q13509+Q71U36+P04350+Q3ZCM7+P07437+P68363+Q9BQE3+Q6PEY2+Q13885+Q9BVA1+Q9BUF5); experiment: Induction of microtubule depolymerization in human MGC803 cells at 60 to 90 nM measured after 48 hrs by DAPI staining based laser confocal microscopic analysis; assay type: cell-based
# [26] = tested on: MGC-803; experiment: Up regulation of CDC25C expression in human MGC803 cells at 30 to 90 nM by Western blot analysis; assay type: functional, cell-based
# [27] = tested on: MGC-803; experiment: Induction of apoptosis in human MGC803 cells assessed as up regulation of cleaved PARP expression at 30 to 90 nM after 48 hrs by Western blot analysis; assay type: functional, cell-based
# [28] = tested on: MGC-803; experiment: Antiproliferative activity against human MGC803 cells assessed as cell viability at 90 nM measured after 7 days by crystal violet staining based assay relative to control; assay type: functional; details: MGC-803, 168 h, read-out: Activity
# [29] = tested on: MGC-803; experiment: Induction of apoptosis in human MGC803 cells assessed as viable cells at 90 nM after 48 hrs by Annexin V-FITC/propidium iodide staining based flow cytometry (reference value: 94.9%); assay type: functional; details: MGC-803, 48 h, read-out: Activity
# [30] = tested on: MGC-803; experiment: Cell cycle arrest in human MGC803 cells assessed as accumulation at G2/M-phase at 90 nM measured after 48 hrs by propidium iodide staining based flow cytometry relative to control; assay type: functional
# [31] = tested on: MGC-803; experiment: Induction of apoptosis in human MGC803 cells assessed as down regulation of Bcl-xl expression after 48 hrs by Western blot analysis; assay type: functional, cell-based
# [32] = biological target: T1, Cyclin-dependent kinase 1/cyclin B1 (Homo sapiens) (UniProt P06493+P14635); experiment: Effect on CDK1-cyclin B1 protein-protein interaction in human MGC803 cells assessed as change in CDK1 expression at 30 to 90 nM measured after 48 hrs by immunoprecipitation based Western blot analysis; assay type: cell-based
# [33] = tested on: MGC-803; experiment: Down regulation of CDK1 expression in human MGC803 cells at 30 to 90 nM in presence of proteasome inhibitor MG132 by Western blot analysis; assay type: functional, cell-based
# [34] = tested on: MGC-803; experiment: Induction of apoptosis in human MGC803 cells assessed as early apoptotic cells at 30 nM after 48 hrs by Annexin V-FITC/propidium iodide staining based flow cytometry (reference value: 1.9%); assay type: functional
# [35] = tested on: MGC-803; experiment: Cell cycle arrest in human MGC803 cells assessed as accumulation at G2/M-phase measured after 48 hrs by propidium iodide staining based flow cytometry; assay type: functional
# [36] = tested on: MGC-803; experiment: Antiproliferative activity against human MGC803 cells assessed as cell viability at 60 nM measured after 7 days by crystal violet staining based assay relative to control; assay type: functional; details: MGC-803, 168 h, read-out: Activity
# [37] = biological target: T1, Cyclin-dependent kinase 1/cyclin B1 (Homo sapiens); experiment: Effect on CDK1-cyclin B1 protein-protein interaction in human MGC803 cells assessed as change in cyclin B1 expression at 30 to 90 nM measured after 48 hrs by immunoprecipitation based Western blot analysis; assay type: cell-based
# [38] = tested on: MGC-803; experiment: Induction of apoptosis in human MGC803 cells assessed as up regulation of DR5 expression at 30 to 90 nM after 48 hrs by Western blot analysis; assay type: functional, cell-based
# [39] = tested on: MGC-803; experiment: Induction of apoptosis in human MGC803 cells assessed as late apoptotic cells at 30 nM after 48 hrs by Annexin V-FITC/propidium iodide staining based flow cytometry (reference value: 2.9%); assay type: functional
# [40] = tested on: MGC-803; experiment: Down regulation of CDK1 expression in human MGC803 cells by Western blot analysis; assay type: functional, cell-based
# T1 sequence (P06493 whole entry, looked up): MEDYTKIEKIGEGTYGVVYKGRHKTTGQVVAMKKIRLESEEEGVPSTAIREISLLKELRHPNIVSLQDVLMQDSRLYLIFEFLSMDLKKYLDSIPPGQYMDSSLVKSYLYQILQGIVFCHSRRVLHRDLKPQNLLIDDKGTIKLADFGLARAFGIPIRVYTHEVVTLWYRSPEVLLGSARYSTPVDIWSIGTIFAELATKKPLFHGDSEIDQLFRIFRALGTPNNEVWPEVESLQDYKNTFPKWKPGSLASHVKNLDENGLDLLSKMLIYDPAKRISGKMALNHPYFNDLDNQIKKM
# T1 sequence (P14635 whole entry, looked up): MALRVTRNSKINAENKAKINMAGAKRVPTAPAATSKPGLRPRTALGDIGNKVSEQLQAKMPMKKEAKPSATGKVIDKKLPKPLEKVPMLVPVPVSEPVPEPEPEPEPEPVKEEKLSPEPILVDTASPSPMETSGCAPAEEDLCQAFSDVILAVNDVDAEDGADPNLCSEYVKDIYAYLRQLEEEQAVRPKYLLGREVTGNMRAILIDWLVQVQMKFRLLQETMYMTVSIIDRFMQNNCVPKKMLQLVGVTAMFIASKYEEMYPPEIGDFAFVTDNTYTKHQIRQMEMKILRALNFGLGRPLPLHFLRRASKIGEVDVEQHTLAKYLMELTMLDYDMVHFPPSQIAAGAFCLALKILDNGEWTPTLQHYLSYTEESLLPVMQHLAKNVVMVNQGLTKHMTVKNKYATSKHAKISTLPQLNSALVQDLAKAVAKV
# Sequence of Cyclin-dependent kinase 1 (Homo sapiens) (P06493 whole entry, looked up): as the sequence (P06493 whole entry, looked up) above
smiles,measurement,setting,value
COc1ccc(CN(C(=O)Cn2cc(COc3cc(=O)oc4ccccc34)nn2)c2cc(OC)c(OC)c(OC)c2)cc1,IC50,[1],6.25 µM
same,IC50,[2],5.14 µM
same,IC50,[3],3.66 µM
COc1ccc(CN(C(=O)Cn2cc(Cn3ccc4ccccc43)nn2)c2cc(OC)c(OC)c(OC)c2)cc1,IC50,[1],40.1 µM
same,IC50,[2],2.39 µM
same,IC50,[3],42.6 µM
COc1ccc(CN(C(=O)Cn2cc(CN3c4ccccc4Sc4ccc(C(F)(F)F)cc43)nn2)c2cc(OC)c(OC)c(OC)c2)cc1,IC50,[1],> 80 µM
same,IC50,[2],> 80 µM
same,IC50,[3],> 80 µM
COc1cc(N2C(=O)[C@H](c3cccs3)[C@H]2c2cccc(N=[N+]=[N-])c2)cc(OC)c1OC,IC50,[4],0.106 µM
COc1ccc(CN(C(=O)Cn2cc(CSc3nnc(-c4ccccc4)c(-c4ccccc4)n3)nn2)c2cc(OC)c(OC)c(OC)c2)cc1,IC50,[1],21.8 µM
same,IC50,[2],19.6 µM
same,IC50,[3],1.52 µM
COc1ccc(CN(C(=O)Cn2cc(CSC3=NCCS3)nn2)c2cc(OC)c(OC)c(OC)c2)cc1,IC50,[1],25 µM
same,IC50,[2],16 µM
same,IC50,[3],1.61 µM
COc1ccc(CN(C(=O)Cn2cc(COc3ccc4c(C)cc(=O)oc4c3)nn2)c2cc(OC)c(OC)c(OC)c2)cc1,Activity,[5],Active
same,Activity,[6],0.4%
same,IC50,[1],1.74 µM
same,IC50,[7],2.16 µM
same,Activity,[8],inactive
same,IC50,[2],0.34 µM
same,inhibition,[9],Dose-dependent effect
same,viability at 0.06 µM,[10],92.1%
same,Activity,[11],Dose-dependent effect
same,Activity,[12],25%
same,viability at 0.12 µM,[13],16%
same,Activity,[14],Active
same,Activity,[15],Active
same,Activity,[16],36.8%
same,Activity,[17],Dose-dependent effect
same,Activity,[18],0.3%
same,Activity,[19],0.2%
same,inhibition,[20],Active
same,viability at 0.03 µM,[21],85.9%
same,IC50,[3],0.13 µM
same,Activity,[22],4.5%
same,viability at 0.03 µM,[23],94.5%
same,Activity,[24],3.1%
same,Activity,[25],Active
same,Activity,[26],inactive
same,Activity,[27],Active
same,viability at 0.09 µM,[28],31.8%
same,viability at 0.09 µM,[29],37.9%
same,Activity,[30],Active
same,Activity,[31],Dose-dependent effect
same,Activity,[32],inactive
same,Activity,[33],Active
same,Activity,[34],2.1%
same,Activity,[35],Dose-dependent effect
same,viability at 0.06 µM,[36],62.6%
same,Activity,[37],inactive
same,Activity,[38],Active
same,Activity,[39],3.1%
same,Activity,[40],Dose-dependent effect
COc1ccc(CN(C(=O)Cn2cc(CSc3nnnn3C)nn2)c2cc(OC)c(OC)c(OC)c2)cc1,IC50,[1],28.3 µM
same,IC50,[2],10.9 µM
same,IC50,[3],6.57 µM
COc1ccc(CN(C(=O)Cn2cc(COc3ccccc3)nn2)c2cc(OC)c(OC)c(OC)c2)cc1,IC50,[1],20.5 µM
same,IC50,[2],45.3 µM
same,IC50,[3],12.5 µM
C#CCOc1ccc2ccc(=O)oc2c1,IC50,[1],> 80 µM
same,IC50,[2],> 80 µM
same,IC50,[3],> 80 µM
